In patent publication US9433577B2, “Pharmaceutical composition comprising oligopeptides” (Merck Patent GmbH, priority 2009, dated 2016):
Values after ≈ are worked out from the molar mass of the structure shown.

Key:
[1] = Saturation solubility of Cilengitide solid forms in water and solvents; format: physicochemical
Description: Solubility in this regard is preferably refers to the saturation solubility, which is preferably the maximum mass of the respective compound, which can be solubilised or dissolved in a solvent at a respective temperature and at a specific pressure, preferably atmospheric pressure.
10 mL of solvent is placed in an amber glass ampul and sufficient substance is added to yield a distinct sediment that remains on the bottom after mixing thoroughly. After standing for 15 minutes and mixing again the ampuls are sealed and shaken in a thermostatically controlled water bath (20° C./16 hours or 25° C./16 hours, preferably 20° C./16 hours). Afterwards the ampuls are opened and the supernatant solution is filtered until the filtrate is clear. The content of the substance is determined photometrically in an aliquot by means of the specific adsorption coefficient. The respective dilution of the solvent without substance serves as blank. The solubility is expressed in the dimension of g substance in 100 mL or mg substance in 1 mL, preferably in mg substance in 1 mL. Preferably, this method is performed at normal atmospheric pressure and especially at the standardised “normal” atmospheric pressure, i.e. 1 atm=1.01325 bar.

[2] = Thermodynamic stability of crystalline forms (slurry / vapour atmosphere); format: physicochemical
Description: Wetted material in this regard is preferably a mixture of the respective anhydrate with at least 5% by weight, more preferably at least 10% by weight and especially 20% by weight, of the respective aqueous system.
Upon water vapour adsorption, an assembly of water molecules in the lattice is observed, with a maximum weight gain of approx. 6.4 wt % at elevated rh. In the second desorption cycle a total mass loss of approx. 9.2 wt % is observed. For a Dihydrate Di-Ethanolate of the compound of formula Id, the calculated Ethanol content equals 12.5 wt %.
Also the pure form A1 can be manufactured by competitive slurry conversion experiments with a mixture of a pseudopolymorphic form (for example S1, S2, S3 or mixtures of these) and A1 (1:1) in Acetone, Acetonitrile, Isopropanol, physiological NaCl solution, Phosphate buffer (pH 7.4) and 1:1 (v:v) mixtures of Acetone, Acetonitrile, Isopropanol with Water at RT (25° C.).
Approx. 20 mg of a pseudopolymorphic form (for example S1, S2, S3 or mixtures of these) and 20 mg of form A1 of Cilengitide are dispersed in 200-700 μl solvent at room temperature. The dispersion is stirred for 5 days and additionally 26 days (long-term experiment) at RT (25° C.) by a magnetic stirrer and finally filtered. […]

[3] = Dynamic vapour experiments (Water Vapour Sorption, 25° C.); format: physicochemical; details: for mass loss in the first desorption cycle / initial drying step (0% rh) / total mass loss in the second desorption cycle: Water Vapour Sorption; for maximum weight gain upon water vapour adsorption (assembly of water molecules in the lattice): at elevated rh
Description: (§1) A SMS DVS Intrinsic is used for the dynamic vapour experiments. The results are obtained by standard techniques as described in Rolf Hilfiker, ‘Polymorphism in the Pharmaceutical Industry’, Wiley-VCH. Weinheim 2006 (Chapter 9: Water Vapour Sorption, and references therein). […] Upon water vapour adsorption, an assembly of water molecules in the lattice is observed, with a maximum weight gain of approx. 8 wt % at elevated rh. In the second desorption cycle a total mass loss of approx. 9.9 wt % is observed. For a Cilengitide Dihydrate Di-Methanolate, the calculated Methanol content equals 9.3 wt %.
as §1, with “6.4” for “8”, “9.2” for “9.9”, “Di-Ethanolate,” for “Di-Methanolate,”, “Ethanol” for “Methanol”, “12.5” for “9.3”

[4] = Pharmacokinetic study in monkeys; details: in vivo, Cynomolgus monkey, animal 583, dose 11.8 mg/kg, suspension Cilengitide 300 mg/mL + DMPG 2 mg/mL, read-out: MSC1097999
Description: • Composition (Suspension) administered • Cilengitide: 300 mg/mL • DMPG: 2 mg/mL • Phenol: 0.5% • NaCl: 0.9% • Species/strain and number of animals • Monkey, Cynomolgus • Dose: 12 mg/kg (40 μL suspension/kg) • Sampling time points: 0.25, 0.5, 2, 4, 8 hours post dose: […]

CC(C)[C@H]1C(=O)N[C@@H](CCCNC(=N)N)C(=O)NCC(=O)N[C@@H](CC(=O)O)C(=O)N[C@H](Cc2ccccc2)C(=O)N1C [crystalline form A1, cyclo-(Arg-Gly-Asp-DPhe-NMeVal)]
solubility at 16 h ([1]; water, at 20° C. or 25° C., preferably at 20° C.): ~7000 µg/mL (≈ 11.9 mM) | thermodynamic stability of the form ([2]; in the presence of aqueous based solvents, absence of methanol and/or ethanol): thermodynamically stable form | hygroscopicity classification acc. to Ph. Eur. criteria ([3]; water uptake up to 98% relative humidity): non-hygroscopic

cyclo-(Arg-Gly-Asp-DPhe-NMeVal) [form S1]
mass loss in the first desorption cycle / initial drying step (0% rh) [3]: approx. 8 wt % | total mass loss in the second desorption cycle [3]: approx. 9.9 wt % | maximum weight gain upon water vapour adsorption (assembly of water molecules in the lattice) [3]: approx. 8 wt %

CC(C)[C@H]1C(=O)N[C@@H](CCCNC(=N)N)C(=O)NCC(=O)N[C@@H](CC(=O)O)C(=O)N[C@H](Cc2ccccc2)C(=O)N1C [tetrahydrate Form S3, cyclo-(Arg-Gly-Asp-DPhe-NMeVal)]
Solubility ([1]; solvent H2O/Acetone (1:1)): 22700 µg/mL | mass loss in the first desorption cycle / initial drying step (0% rh) [3]: ca. 9 wt % | maximum weight gain upon water vapour adsorption (assembly of water molecules in the lattice) [3]: ca. 10 wt %

CC(C)[C@H]1C(=O)N[C@@H](CCCN=C(N)N)C(=O)NCC(=O)N[C@@H](CC(=O)O)C(=O)N[C@H](Cc2ccccc2)C(=O)N1C [MSC1097999]
level at 0.25 h ([4]; 0.250 h): 586 ng/mL | level at 0.5 h ([4]; 0.500 h): 967 ng/mL | level at 2 h ([4]; 2.00 h): 892 ng/mL | level at 4 h ([4]; 4.00 h): 605 ng/mL | level at 8 h ([4]; 8.00 h): 537 ng/mL

cyclo-(Arg-Gly-Asp-DPhe-NMeVal) [form S2]
thermodynamic stability of the form ([2]; atmosphere of 100% Ethanol vapour): thermodynamically stable form | mass loss in the first desorption cycle / initial drying step (0% rh) [3]: approx. 6.5 wt % | total mass loss in the second desorption cycle [3]: approx. 9.2 wt % | mass loss in the first desorption cycle / initial drying step (0% rh) ([3]; listed as crystalline form S2): approx. 6.5 wt % | total mass loss in the second desorption cycle ([3]; listed as crystalline form S2): approx. 9.2 wt % | maximum weight gain upon water vapour adsorption (assembly of water molecules in the lattice) [3]: approx. 6.4 wt % | maximum weight gain upon water vapour adsorption (assembly of water molecules in the lattice) ([3]; listed as crystalline form S2): approx. 6.4 wt %
